Values after ≈ are worked out from the molar mass of the structure shown.
Key:
[1] = test system: Escherichia coli ATCC 25922; assay: Minimal Inhibitory Concentration (MIC) broth dilution assay; assay type: cell-based; conditions: ATCC25922, 20 h, read-out: MIC Escherichia coli ATCC 25922
Procedure: (§1) The antibacterial activity of the compounds of the present invention was evaluated against the commonly used quality control strain Escherichia coli ATCC 25922 and the rifampin-resistant mutant strain Klebsiella pneumonia ATCC 43816. Both were originally derived from human clinical samples and are available from ATCC (American Type Culture Collection). The in vitro potency of compounds to inhibit Escherichia coli (ATCC 25922) and Klebsiella pneumonia (ATCC 43816) growth was assessed by the MIC (Minimal Inhibitory Concentration) broth dilution method. Specifically compound dilutions were prepared from 10 mM DMSO stock solutions as follows: i) serial 2-fold dilution in 20 μL DMSO were prepared in a master plate (Greiner, Cat No: 651201), ii) 180 μL sterile distilled water was added to each aliquot and iii) 10 μL diluted compounds were transferred into a new assay plate (Costar, 3599).
(§2) Vials of each test microorganisms were maintained frozen in the vapor phase of a liquid nitrogen freezer. Single-use frozen vials of the two strains Escherichia coli ATCC 25922 (KWIKSTIK, 0335K) and Klebsiella pneumonia ATCC 43816, with predetermined CFU/mL, were taken out from the freezer, thawed at room temperature, and diluted in Cation-Adjusted Mueller Hinton Broth (CAMHB) to achieve a final inoculum of 5×10^5 CFU/mL. 90 μL bacteria containing broth was dispensed to the assay plate containing the pre-dispensed compound dilutions and mixed by pipetting 5 times.
(§3) Then the assay plates were incubated for 20 hours at 35° C. in ambient air. Following incubation, the MIC ([…]), the lowest concentration of drug that inhibits visible growth of the microorganism was read with the help of a magnification mirror and recorded.

[2] = test system: Klebsiella pneumonia ATCC 43816; assay: as above; assay type: cell-based; conditions: Klebsiella pneumoniae, ATCC43816, 20 h, read-out: MIC Klebsiella pneumoniae ATCC43816
Procedure: as §1, §2, §3

Structure (SMILES) | MIC [1] | MIC [2]
O=C(Nc1ccc(S(=O)(=O)N2CCN(c3cc(C(F)(F)F)cc(Cl)n3)CC2)cc1)c1cccc(N2C[C@H]3CN[C@H]3C2)c1 (stereo in doubt) [Example 052, N-[4-[4-[6-Chloro-4-(trifluoromethyl)-2-pyridyl]piperazin-1-yl]sulfonylphenyl]-3-[3,6-diazabicyclo[3.2.0]heptan-3-yl]benzamide] | 1.1 µg/mL (≈ 1.77 µM) | 2.3 µg/mL (≈ 3.7 µM)
NCCC1CCCN1Cc1ccc(C(=O)Nc2ccc(S(=O)(=O)N3CCN(c4cc(C(F)(F)F)cc(Cl)n4)CC3)cc2)cc1 (stereo in doubt) [Example 072, N-[4-[4-[6-chloro-4-(trifluoromethyl)-2-pyridyl]piperazin-1-yl]sulfonylphenyl]-4-[[(2S)-2-(2-aminoethyl)pyrrolidin-1-yl]methyl]benzamide] | 1 µg/mL (≈ 1.54 µM) | 2 µg/mL (≈ 3.07 µM)
NCCCNCc1ccc(C(=O)Nc2ccc(S(=O)(=O)N3CCN(c4cc(C(F)(F)F)ccn4)CC3)cc2)cc1 [Example 002, 4-[(3-Aminopropylamino)methyl]-N-[4-[4-[4-(trifluoromethyl)-2-pyridyl]piperazin-1-yl]sulfonylphenyl]benzamide] | 1.8 µg/mL (≈ 3.12 µM) | 5.4 µg/mL (≈ 9.36 µM)
NCCCNCc1ccc(C(=O)Nc2ccc(S(=O)(=O)N3CCN(c4cc(C(F)(F)F)c(Cl)cn4)CC3)cc2)cc1 [Example 003, 4-[(3-Aminopropylamino)methyl]-N-[4-[4-[5-chloro-4-(trifluoromethyl)-2-pyridyl]piperazin-1-yl]sulfonylphenyl]benzamide] | 1.4 µg/mL (≈ 2.29 µM) | 3.8 µg/mL (≈ 6.22 µM)
NCCCNCc1ccc(C(=O)Nc2ccc(S(=O)(=O)N3CCN(c4cc(Cl)cc(C(F)(F)F)c4)CC3)cc2)cc1 [Example 004, 4-[(3-Aminopropylamino)methyl]-N-[4-[4-[3-chloro-5-(trifluoromethyl)phenyl]piperazin-1-yl]sulfonylphenyl]benzamide] | 1.9 µg/mL (≈ 3.11 µM) | 3.8 µg/mL (≈ 6.23 µM)
NCCCNCc1ccc(C(=O)Nc2ccc(S(=O)(=O)N3CCN(c4cc(C(F)(F)F)nc(Cl)n4)CC3)cc2)cc1 [Example 005, 4-[(3-Aminopropylamino)methyl]-N-[4-[4-[2-chloro-6-(trifluoromethyl)pyrimidin-4-yl]piperazin-1-yl]sulfonylphenyl]benzamide] | 1.9 µg/mL (≈ 3.1 µM) | 7.7 µg/mL (≈ 12.6 µM)
NCCCNCc1ccc(C(=O)Nc2ccc(S(=O)(=O)N3CCN(c4cc(C(F)(F)F)nc(N)n4)CC3)cc2)cc1 [Example 006, 4-[(3-Aminopropylamino)methyl]-N-[4-[4-[2-amino-6-(trifluoromethyl)pyrimidin-4-yl]piperazin-1-yl]sulfonylphenyl]benzamide] | 3.7 µg/mL (≈ 6.24 µM) | 15 µg/mL (≈ 25.3 µM)
NCCCNCc1ccc(C(=O)Nc2ccc(S(=O)(=O)N3CCN(c4cc(Br)cc(Cl)n4)CC3)cc2)cc1 [Example 007, 4-[(3-Aminopropylamino)methyl]-N-[4-[4-(4-bromo-6-chloro-2-pyridyl)piperazin-1-yl]sulfonylphenyl]benzamide] | 0.97 µg/mL (≈ 1.56 µM) | 0.97 µg/mL (≈ 1.56 µM)
NCCCNCc1ccc(C(=O)Nc2ccc(S(=O)(=O)N3CCN(c4cc(C(F)(F)F)c(C5CC5)cn4)CC3)cc2)cc1 [Example 008, 4-[(3-Aminopropylamino)methyl]-N-[4-[4-[5-cyclopropyl-4-(trifluoromethyl)-2-pyridyl]piperazin-1-yl]sulfonylphenyl]benzamide] | – | 7.7 µg/mL (≈ 12.5 µM)
NCCCNCc1ccc(C(=O)Nc2ccc(S(=O)(=O)N3CCN(c4cc(C(F)(F)F)cc(OC5CC5)n4)CC3)cc2)cc1 [Example 009, 4-[(3-Aminopropylamino)methyl]-N-[4-[4-[6-(cyclopropoxy)-4-(trifluoromethyl)-2-pyridyl]piperazin-1-yl]sulfonylphenyl]benzamide] | 5.4 µg/mL (≈ 8.53 µM) | 11 µg/mL (≈ 17.4 µM)
CCOc1cc(C(F)(F)F)cc(N2CCN(S(=O)(=O)c3ccc(NC(=O)c4ccc(CNCCCN)cc4)cc3)CC2)n1 [Example 010, 4-[(3-Aminopropylamino)methyl]-N-[4-[4-[6-ethoxy-4-(trifluoromethyl)-2-pyridyl]piperazin-1-yl]sulfonylphenyl]benzamide] | 5.3 µg/mL (≈ 8.54 µM) | 11 µg/mL (≈ 17.7 µM)
CCc1cc(C(F)(F)F)cc(N2CCN(S(=O)(=O)c3ccc(NC(=O)c4ccc(CNCCCN)cc4)cc3)CC2)n1 [Example 011, 4-[(3-Aminopropylamino)methyl]-N-[4-[4-[6-ethyl-4-(trifluoromethyl)-2-pyridyl]piperazin-1-yl]sulfonylphenyl]benzamide] | 3.8 µg/mL (≈ 6.28 µM) | 7.6 µg/mL (≈ 12.6 µM)
Cc1cnc(N2CCN(S(=O)(=O)c3ccc(NC(=O)c4ccc(CCNCCCN)cc4)cc3)CC2)cc1C(F)(F)F [Example 013, 4-[2-(3-Aminopropylamino)ethyl]-N-[4-[4-[5-methyl-4-(trifluoromethyl)-2-pyridyl]piperazin-1-yl]sulfonylphenyl]benzamide] | 0.94 µg/mL (≈ 1.55 µM) | –
NCCCNCCc1ccc(C(=O)Nc2ccc(S(=O)(=O)N3CCN(c4cc(Cl)c(Cl)cn4)CC3)cc2)cc1 [Example 014, 4-[2-(3-Aminopropylamino)ethyl]-N-[4-[4-(4,5-dichloro-2-pyridyl)piperazin-1-yl]sulfonylphenyl]benzamide] | 15 µg/mL (≈ 25.4 µM) | 30 µg/mL (≈ 50.7 µM)
N#Cc1cc(N2CCN(S(=O)(=O)c3ccc(NC(=O)c4ccc(CCNCCCN)cc4)cc3)CC2)nc(C(F)(F)F)c1 [Example 015, 4-[2-(3-Aminopropylamino)ethyl]-N-[4-[4-[4-cyano-6-(trifluoromethyl)-2-pyridyl]piperazin-1-yl]sulfonylphenyl]benzamide] | 1.9 µg/mL (≈ 3.09 µM) | 3.8 µg/mL (≈ 6.17 µM)
N#Cc1cc(C(F)(F)F)cc(N2CCN(S(=O)(=O)c3ccc(NC(=O)c4ccc(CCNCCCN)cc4)cc3)CC2)n1 [Example 016, 4-[2-(3-Aminopropylamino)ethyl]-N-[4-[4-[6-cyano-4-(trifluoromethyl)-2-pyridyl]piperazin-1-yl]sulfonylphenyl]benzamide] | 1.9 µg/mL (≈ 3.09 µM) | 3.8 µg/mL (≈ 6.17 µM)
CC(F)(F)c1cc(Cl)nc(N2CCN(S(=O)(=O)c3ccc(NC(=O)c4ccc(CCNCCCN)cc4)cc3)CC2)c1 [Example 017, 4-[2-(3-Aminopropylamino)ethyl]-N-[4-[4-[6-chloro-4-(1,1-difluoroethyl)-2-pyridyl]piperazin-1-yl]sulfonylphenyl]benzamide] | 0.97 µg/mL (≈ 1.56 µM) | 0.97 µg/mL (≈ 1.56 µM)
Cc1cc(C(F)(F)F)cc(N2CCN(S(=O)(=O)c3ccc(NC(=O)c4cccc(CNCCCN)c4)cc3)CC2)n1 [Example 018, 3-[(3-Aminopropylamino)methyl]-N-[4-[4-[6-methyl-4-(trifluoromethyl)-2-pyridyl]piperazin-1-yl]sulfonylphenyl]benzamide] | 0.64 µg/mL (≈ 1.08 µM) | 2.6 µg/mL (≈ 4.4 µM)
O=C1CC(CNCc2cccc(C(=O)Nc3ccc(S(=O)(=O)N4CCN(c5cc(C(F)(F)F)cc(Cl)n5)CC4)cc3)c2)CN1 (stereo not drawn) [Example 085, N-[4-[4-[6-chloro-4-(trifluoromethyl)-2-pyridyl]piperazin-1-yl]sulfonylphenyl]-3-[[(5-oxopyrrolidin-3-yl)methylamino]methyl]benzamide] | 1.2 µg/mL (≈ 1.84 µM) | –
CN(C)C(=O)CCNCc1cccc(C(=O)Nc2ccc(S(=O)(=O)N3CCN(c4cc(C(F)(F)F)cc(Cl)n4)CC3)cc2)c1 [Example 086, N-[4-[4-[6-chloro-4-(trifluoromethyl)-2-pyridyl]piperazin-1-yl]sulfonylphenyl]-3-[[[3-(dimethylamino)-3-oxo-propyl]amino]methyl]benzamide] | 2.4 µg/mL (≈ 3.67 µM) | –

From US20260217672A1, “BENZAMIDE COMPOUNDS FOR TREATMENT OF BACTERIAL INFECTIONS” (Hoffmann-La Roche Inc., priority 2022, published 2026)
